In series [1] the test system is Oryza sativa, (L.) Tebonnet. Description: Rice tolerance to post-transplant applications under flooded paddy conditions (Example 187), ORYSAT (Rice, Tebonnet). For herbicidal effect rating ORYSAT: meaning of each grade not given here. Particulars: for ORYSAT herbicidal rating (rice tolerance) / herbicidal effect rating ORYSAT: rated three to four weeks after treatment; for ORYSAT: herbicidal effect rating 0-9, three to four weeks after treatment.

In series [2] the test system is Monochoria vaginalis, Presl. The series can be described thus: Preemergence weed control under flooded paddy conditions, MOOVA (Monochoria). The format is in vivo. To be noted: flooded paddy; for MOOVA herbicidal rating / herbicidal effect rating, MOOVA: preemergence, rated three to four weeks after treatment; for MOOVA: preemergence weeds, herbicidal effect rating 0-9, three to four weeks after treatment.

Another series deals with Cyperus iria. The series can be described thus: Preemergence weed control under flooded paddy conditions, CYPIR (Rice Flatsedge). In kind it is in vivo. Particulars: flooded paddy; for CYPIR herbicidal rating / herbicidal effect rating, CYPIR: preemergence, rated three to four weeks after treatment; for CYPIR: preemergence weeds, herbicidal effect rating 0-9, three to four weeks after treatment.

The subject of a further series is Sagittaria pygmaea, L. The series can be described thus: Preemergence weed control under flooded paddy conditions, SAGPY (Arrowhead (Pygmaea)). In kind it is in vivo. To be noted: flooded paddy; for SAGPY herbicidal rating / herbicidal effect rating, SAGPY: preemergence, rated three to four weeks after treatment; for SAGPY: preemergence weeds, herbicidal effect rating 0-9, three to four weeks after treatment.

In series [3] the test system is Cyperus serotinus, Rottb. The series can be described thus: Preemergence weed control under flooded paddy conditions, CYPSE (Flatsedge). The format is in vivo. Particulars: for CYPSE herbicidal rating / herbicidal effect rating, CYPSE: preemergence, rated three to four weeks after treatment.
The subject of series [4] is Echinochloa oryzoides (Ard.) Fritsch. The series can be described thus: Preemergence weed control under flooded paddy conditions, ECHORC (Watergrass (Calif.)). In kind it is in vivo. To be noted: flooded paddy; for ECHORC herbicidal rating / herbicidal effect rating, ECHORC: preemergence, rated three to four weeks after treatment; for ECHORC: preemergence weeds, herbicidal effect rating 0-9, three to four weeks after treatment.

As to `Cn1c(C(F)(F)F)cc(=O)n(-c2ccc3snc(C(=O)NS(=O)(=O)Cc4cccc(Cl)c4)c3c2)c1=O` [Example 486, 1,2-Benzisothiazole-3-carboxamide, N-[(m-chlorobenzyl)sulfonyl]-5-[3,6-dihydro-3-methyl-2,6-dioxo-4-(trifluoromethyl)-1(2H)-pyrimidinyl]-], the “ORYSAT herbicidal rating (rice tolerance)” value is recorded as 0.0 in series [1] (0.0320 kg/ha), 3.0 in series [1] (0.0620 kg/ha), 5.0 in series [1] (0.1250 kg/ha) and 6.0 in series [1] (0.2500 kg/ha). Besides, the MOOVA herbicidal rating in series [2] (0.0320 kg/ha) was 5.0; in series [2] (0.0620 kg/ha), 6.0; in series [2] (0.1250 kg/ha) it was 7.0; in series [2] (0.2500 kg/ha) it was 9.0. The CYPIR herbicidal rating is recorded as 4.0 in the series with Cyperus iria (0.0320 kg/ha), 5.0 with Cyperus iria (0.0620 kg/ha), 6.0 in the series on Cyperus iria (0.1250 kg/ha) and 6.0 in the series with Cyperus iria (0.2500 kg/ha). Further, the SAGPY herbicidal rating is recorded as 0.0 in the series on Sagittaria pygmaea, L. (0.0320 kg/ha); 0.0 in the series on Sagittaria pygmaea, L. (0.0620 kg/ha); 3.0 in the series with Sagittaria pygmaea, L. (0.1250 kg/ha); 6.0 in the series on Sagittaria pygmaea, L. (0.2500 kg/ha). The results for the CYPSE herbicidal rating in series [3] (0.0320 kg/ha), in series [3] (0.0620 kg/ha) and in series [3] (0.2500 kg/ha) were 0.0, 0.0 and 3.0, respectively. In addition, the ECHORC herbicidal rating in series [4] (0.0320 kg/ha) came to 4.0; in series [4] (0.0620 kg/ha) it was 6.0; in series [4] (0.1250 kg/ha), 7.0; in series [4] (0.2500 kg/ha) it was 9.0.

Consider `CN(Cc1ccc(Cl)cc1)S(=O)(=O)NC(=O)c1nsc2ccc(-n3c(=O)cc(C(F)(F)F)n(C)c3=O)cc12` [Example 420, 1,2-Benzisothiazole-3-carboxamide, N-[(p-chlorobenzyl)methylsulfamoyl]-5-[3,6-dihydro-3-methyl-2,6-dioxo-4-(trifluoromethyl)-1(2H)-pyrimidinyl]-], for which the ORYSAT came to 0.0 in series [1] (0.0320 kg/ha), 2.0 in series [1] (0.0620 kg/ha), 3.0 in series [1] (0.1250 kg/ha) and 5.0 in series [1] (0.2500 kg/ha). The MOOVA in series [2] (0.0320 kg/ha), in series [2] (0.0620 kg/ha), in series [2] (0.1250 kg/ha) and in series [2] (0.2500 kg/ha) was 9.0 each time. Also, the CYPIR in the series with Cyperus iria (0.0320 kg/ha) was 2.0; in the series with Cyperus iria (0.0620 kg/ha), 4.0; in the series on Cyperus iria (0.1250 kg/ha), 6.0; with Cyperus iria (0.2500 kg/ha) it was 6.0. The SAGPY in the series with Sagittaria pygmaea, L. (0.0320 kg/ha) came out at 0.0; in the series with Sagittaria pygmaea, L. (0.0620 kg/ha), 0.0; in the series with Sagittaria pygmaea, L. (0.1250 kg/ha), 2.0; in the series on Sagittaria pygmaea, L. (0.2500 kg/ha), 3.0. Also, the CYPSE in series [3] (0.2500 kg/ha, preemergence weeds, herbicidal effect rating 0-9, three to four weeks after treatment) is 0.0. In addition, the ECHORC in series [4] (0.0320 kg/ha), in series [4] (0.0620 kg/ha), in series [4] (0.1250 kg/ha) and in series [4] (0.2500 kg/ha) was 7.0 in each case.

Take `COCCOCCOC(=O)c1nsc2ccc(-n3c(=O)cc(C(F)(F)F)n(C)c3=O)cc12` [Example 389, 1,2-Benzisothiazole-3-carboxylic acid, 5-[3,6-dihydro-3-methyl-2,6-dioxo-4-(trifluoromethyl)-1(2H)-pyrimidinyl]-, 2-(2-methoxyethoxy)ethyl ester]: the “herbicidal effect rating ORYSAT” value in series [1] (Rate 0.0320 kg/ha) was 3.0; in series [1] (Rate 0.0620 kg/ha) it was 4.0; in series [1] (Rate 0.1250 kg/ha) it was 4.0; in series [1] (Rate 0.2500 kg/ha) it was 5.0. For the same compound, the “herbicidal effect rating, MOOVA” value in series [2] (Rate 0.0320 kg/ha) is recorded as 7.0; in series [2] (Rate 0.0620 kg/ha), 9.0; in series [2] (Rate 0.1250 kg/ha), 9.0; in series [2] (Rate 0.2500 kg/ha) it was 9.0. Further, the “herbicidal effect rating, CYPIR” value in the series with Cyperus iria (Rate 0.0320 kg/ha) stood at 5.0; with Cyperus iria (Rate 0.0620 kg/ha), 5.0; in the series with Cyperus iria (Rate 0.1250 kg/ha), 7.0; in the series with Cyperus iria (Rate 0.2500 kg/ha), 9.0. Moreover, the “herbicidal effect rating, SAGPY” value in the series on Sagittaria pygmaea, L. (Rate 0.0320 kg/ha) came to 3.0; with Sagittaria pygmaea, L. (Rate 0.0620 kg/ha) it was 4.0; with Sagittaria pygmaea, L. (Rate 0.1250 kg/ha) it was 7.0; in the series on Sagittaria pygmaea, L. (Rate 0.2500 kg/ha), 9.0. Further, the “herbicidal effect rating, CYPSE” value in series [3] (Rate 0.0320 kg/ha) is 0.0; in series [3] (Rate 0.1250 kg/ha), 7.0; in series [3] (Rate 0.2500 kg/ha) it was 8.0. Also, the “herbicidal effect rating, ECHORC” value in series [4] (Rate 0.0320 kg/ha) is given as 3.0; in series [4] (Rate 0.0620 kg/ha), 4.0; in series [4] (Rate 0.1250 kg/ha), 4.0; in series [4] (Rate 0.2500 kg/ha), 7.0.

As for `Cn1c(C(F)(F)F)cc(=O)n(-c2ccc3snc(C(C)(C)C(N)=O)c3c2)c1=O` [Example 509, 1,2-Benzisothiazole-3-acetamide, 5-[3,6-dihydro-3-methyl-2,6-dioxo-4-(trifluoromethyl)-1(2H)-pyrimidinyl]-alpha,alpha-dimethyl-], the results for the “ORYSAT herbicidal rating (rice tolerance)” value in series [1] (0.0620 kg/ha), in series [1] (0.1250 kg/ha) and in series [1] (0.2500 kg/ha) were 0.0, 3.0 and 7.0, respectively. For the same compound, the MOOVA herbicidal rating in series [2] (0.0620 kg/ha) is listed as 0.0; in series [2] (0.1250 kg/ha), 4.0; in series [2] (0.2500 kg/ha), 9.0. Also, the CYPIR herbicidal rating amounted to 0.0 with Cyperus iria (0.0620 kg/ha), 4.0 in the series on Cyperus iria (0.1250 kg/ha) and 7.0 in the series with Cyperus iria (0.2500 kg/ha). Further, the SAGPY herbicidal rating in the series with Sagittaria pygmaea, L. (0.0620 kg/ha) stood at 0.0; with Sagittaria pygmaea, L. (0.1250 kg/ha) it was 3.0; in the series on Sagittaria pygmaea, L. (0.2500 kg/ha), 6.0. The figures for the CYPSE herbicidal rating in series [3] (0.0620 kg/ha), in series [3] (0.1250 kg/ha) and in series [3] (0.2500 kg/ha) were 0.0, 0.0 and 7.0, respectively. The ECHORC herbicidal rating in series [4] (0.0620 kg/ha) was found to be 0.0; in series [4] (0.1250 kg/ha) it was 2.0; in series [4] (0.2500 kg/ha), 7.0.

As for `Cn1c(C(F)(F)F)cc(=O)n(-c2cc3c(C(Br)Br)nsc3cc2F)c1=O` [Example 372, 2,4(1H,3H)-Pyrimidinedione, 3-[3-(dibromomethyl)-6-fluoro-1,2-benzisothiazol-5-yl]-1-methyl-6-(trifluoromethyl)-], the “herbicidal effect rating ORYSAT” value is recorded as 6.0 in series [1] (Rate 0.0320 kg/ha), 8.0 in series [1] (Rate 0.0620 kg/ha), 8.0 in series [1] (Rate 0.1250 kg/ha) and 9.0 in series [1] (Rate 0.2500 kg/ha). Moreover, the “herbicidal effect rating, MOOVA” value in series [2] (Rate 0.0320 kg/ha), in series [2] (Rate 0.0620 kg/ha), in series [2] (Rate 0.1250 kg/ha) and in series [2] (Rate 0.2500 kg/ha) was 9.0 throughout. The “herbicidal effect rating, CYPIR” value in the series with Cyperus iria (Rate 0.0320 kg/ha) turned out to be 8.5; in the series with Cyperus iria (Rate 0.0620 kg/ha), 9.0; with Cyperus iria (Rate 0.1250 kg/ha), 9.0; in the series with Cyperus iria (Rate 0.2500 kg/ha) it was 9.0. Further, the “herbicidal effect rating, SAGPY” value in the series with Sagittaria pygmaea, L. (Rate 0.0320 kg/ha) is recorded as 8.5; with Sagittaria pygmaea, L. (Rate 0.0620 kg/ha) it was 9.0; with Sagittaria pygmaea, L. (Rate 0.1250 kg/ha), 9.0; with Sagittaria pygmaea, L. (Rate 0.2500 kg/ha), 9.0. The “herbicidal effect rating, CYPSE” value in series [3] (Rate 0.0320 kg/ha) is listed as 1.0; in series [3] (Rate 0.0620 kg/ha) it was 5.0; in series [3] (Rate 0.1250 kg/ha), 8.5; in series [3] (Rate 0.2500 kg/ha), 9.0. The “herbicidal effect rating, ECHORC” value in series [4] (Rate 0.0320 kg/ha), in series [4] (Rate 0.0620 kg/ha), in series [4] (Rate 0.1250 kg/ha) and in series [4] (Rate 0.2500 kg/ha) was 9.0 each time.

(Values after EP0908457B1, “3-(1,2-benzisothiazol- and isoxazol-5-Y1)-2,4(1H,3H)-pyrimidinedione or thione and 3-(1,2-benzisothiazol- and isoxazol-5-y1)-4(3H)-pyrimidinone or thione herbicidal agents” (BASF AKTIENGESELLSCHAFT, priority 1997, dated 1999).)
